# Experiments:
# medaka ARβ (mArβ) [1] = biological target: T1, medaka ARβ (mArβ) (Oryzias latipes, UniProt D1MV73); assay: Medaka ARβ reporter gene assay, agonist assay; assay type: cell-based, Japanese medaka (Oryzias latipes); conditions: MAC = 1.0 × 10^−5 M
# T1 sequence (D1MV73 1-744): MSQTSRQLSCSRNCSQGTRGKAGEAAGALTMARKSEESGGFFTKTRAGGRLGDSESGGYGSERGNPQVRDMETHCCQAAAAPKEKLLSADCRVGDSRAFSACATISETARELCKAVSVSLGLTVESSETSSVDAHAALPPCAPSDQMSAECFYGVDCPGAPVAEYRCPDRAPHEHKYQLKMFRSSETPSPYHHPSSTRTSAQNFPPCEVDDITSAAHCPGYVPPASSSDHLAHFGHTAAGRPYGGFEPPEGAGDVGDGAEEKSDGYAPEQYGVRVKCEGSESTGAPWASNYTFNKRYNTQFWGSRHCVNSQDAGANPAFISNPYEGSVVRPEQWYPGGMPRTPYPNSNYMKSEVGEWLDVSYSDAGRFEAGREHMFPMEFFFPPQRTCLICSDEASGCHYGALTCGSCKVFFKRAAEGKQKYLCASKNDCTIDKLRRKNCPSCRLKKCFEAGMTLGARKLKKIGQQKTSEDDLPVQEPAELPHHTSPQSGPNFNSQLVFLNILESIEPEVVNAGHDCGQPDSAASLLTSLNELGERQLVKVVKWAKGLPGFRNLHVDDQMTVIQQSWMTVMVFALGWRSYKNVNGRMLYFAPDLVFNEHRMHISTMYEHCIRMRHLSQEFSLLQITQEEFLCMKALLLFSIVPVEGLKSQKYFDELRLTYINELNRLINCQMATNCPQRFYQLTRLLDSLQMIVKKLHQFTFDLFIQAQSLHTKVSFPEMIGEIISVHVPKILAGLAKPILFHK
# medaka ARβ (mArβ) [2] = biological target: T1, medaka ARβ (mArβ); assay: Medaka ARβ reporter gene assay, antagonist assay; assay type: cell-based, Japanese medaka (Oryzias latipes)
# medaka Esr1 (mEsr1) [3] = biological target: T2, medaka Esr1 (mEsr1) (Oryzias latipes, UniProt P50241); assay: cell-based; set-up: species or system Japanese medaka (Oryzias latipes)
# T2 sequence (P50241 1-620): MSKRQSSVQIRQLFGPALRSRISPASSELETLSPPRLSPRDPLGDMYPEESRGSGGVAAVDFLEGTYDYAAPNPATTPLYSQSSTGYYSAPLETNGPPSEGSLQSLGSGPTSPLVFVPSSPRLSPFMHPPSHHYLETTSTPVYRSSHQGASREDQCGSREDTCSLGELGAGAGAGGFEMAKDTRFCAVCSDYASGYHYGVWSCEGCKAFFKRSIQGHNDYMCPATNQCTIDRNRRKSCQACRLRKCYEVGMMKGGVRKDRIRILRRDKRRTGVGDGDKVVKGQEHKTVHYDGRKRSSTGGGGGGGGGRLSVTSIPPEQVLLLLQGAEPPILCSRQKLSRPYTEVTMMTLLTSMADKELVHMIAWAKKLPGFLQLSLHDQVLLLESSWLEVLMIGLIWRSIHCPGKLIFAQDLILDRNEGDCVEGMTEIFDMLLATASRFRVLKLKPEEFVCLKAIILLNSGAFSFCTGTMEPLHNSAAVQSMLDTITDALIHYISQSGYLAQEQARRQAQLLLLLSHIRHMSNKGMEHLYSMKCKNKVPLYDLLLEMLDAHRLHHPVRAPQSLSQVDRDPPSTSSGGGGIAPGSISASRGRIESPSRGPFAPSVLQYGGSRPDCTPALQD
# medaka Esr1 (mEsr1) [4] = biological target: T2, medaka Esr1 (mEsr1); assay: Medaka Esr1 reporter gene assay, antagonist assay; assay type: cell-based, Japanese medaka (Oryzias latipes); conditions: E2 spiked at 1.0 nM (B); MAC = 1.0 × 10^−5 M
# [5] = system: Japanese medaka (Oryzias latipes); assay: Fish Short‐Term Reproduction Assay; assay type: in vivo; conditions: for GSI Female / GSI Male / HSI Female / HSI Male / Length Female / Length Male / Weight Female / Weight Male: completion of exposure
# [6] = 100 μg/L measured, 21 d, sig. ↓ vs control
# [7] = measured concentration 5.69 μg/L
# [8] = measured concentration 28.8 μg/L
# [9] = measured concentration 100 μg/L
smiles,measurement,setting,value
"CCC(CC)Nc1c([N+](=O)[O-])cc(C)c(C)c1[N+](=O)[O-] [PDM, Pendimethalin]",Agonistic activity,medaka ARβ (mArβ) [1],NE (MAC = 1.0 × 10^−5 M)
same,IC50,"medaka ARβ (mArβ) [2]; Antagonistic activity IC50, 11‐KT spiked at 50 nM (D)",3.1 µM
same,In vitro positive: aAr,medaka ARβ (mArβ) [2]; mode of action in which IC50 or IC30 was obtained in RGA,aAr
same,Antagonistic activity on mArβ (in words),medaka ARβ (mArβ) [2]; transcriptional activity on mArβ by 11KT,inhibitory potency
same,EC50,medaka Esr1 (mEsr1) [3],3.3 µM
same,In vitro positive: Esr,medaka Esr1 (mEsr1) [3]; mode of action in which EC50 or PC10 was obtained in RGA,Esr
same,Antagonistic activity,medaka Esr1 (mEsr1) [4],NE (MAC = 1.0 × 10^−5 M)^(B)
same,Fertility rate,"[5]; 5.69 μg/L measured, 21 d",93 ± 0.9%
same,"Hepatic VTG, female","[5]; 5.69 μg/L measured, 21 d",649 ± 200 ng/mg‐liver
same,"Hepatic VTG, male","[5]; 5.69 μg/L measured, 21 d",0.5 ± 0.0 ng/mg‐liver
same,Mortality,"[5]; 5.69 μg/L measured, 21 d",0.0%
same,"Mortality, number of dead fish","[5]; 5.69 μg/L measured, 21 d",0
same,Number of fertilized eggs (per female per day),"[5]; 5.69 μg/L measured, 21 d",19 ± 3.1
same,Number of total eggs (per female per day),"[5]; 5.69 μg/L measured, 21 d",21 ± 3.4
same,SSC female (joint plates with papillary processes),"[5]; 5.69 μg/L measured, 21 d",0 ± 0
same,SSC male (joint plates with papillary processes),"[5]; 5.69 μg/L measured, 21 d",85 ± 11
same,Fertility rate,"[5]; 28.8 μg/L measured, 21 d",88 ± 4.9%
same,"Hepatic VTG, female","[5]; 28.8 μg/L measured, 21 d",933 ± 692 ng/mg‐liver
same,"Hepatic VTG, male","[5]; 28.8 μg/L measured, 21 d",5.7 ± 6.6 ng/mg‐liver
same,Mortality,"[5]; 28.8 μg/L measured, 21 d",4.2%
same,"Mortality, number of dead fish","[5]; 28.8 μg/L measured, 21 d",1
same,Number of fertilized eggs (per female per day),"[5]; 28.8 μg/L measured, 21 d",18 ± 3.6
same,Number of total eggs (per female per day),"[5]; 28.8 μg/L measured, 21 d",20 ± 3.9
same,SSC female (joint plates with papillary processes),"[5]; 28.8 μg/L measured, 21 d",0 ± 0
same,SSC male (joint plates with papillary processes),"[5]; 28.8 μg/L measured, 21 d",80 ± 8.2
same,"Hepatic VTG, female","[5]; 100 μg/L measured, 21 d",813 ± 157 ng/mg‐liver
same,Mortality,"[5]; 100 μg/L measured, 21 d",8.3%
same,"Mortality, number of dead fish","[5]; 100 μg/L measured, 21 d",2
same,Number of total eggs (per female per day),"[5]; 100 μg/L measured, 21 d",19 ± 2.1
same,SSC female (joint plates with papillary processes),"[5]; 100 μg/L measured, 21 d",0 ± 0
same,SSC male (joint plates with papillary processes),"[5]; 100 μg/L measured, 21 d",80 ± 13
same,"Hepatic VTG, male","[5]; 100 μg/L measured, 21 d, sig. ↑ vs control",774 ± 290 ng/mg‐liver
same,Fertility rate,[5]; [6],62 ± 11%
same,Number of fertilized eggs (per female per day),[5]; [6],12 ± 2.3
same,"LOEC, elevated hepatic VTG in males",[5]; 21 d,100 µg/L
same,LOECREPRO,[5]; LOEC on reproduction (fecundity and/or fertility),100 µg/L
same,minimal effective concentration,"[5]; Oryzias latipes, 504 h, read-out: LOECmVTG",0.1 µg/mL
same,Fertility rate (in words),[5]; at concentrations that did not affect number of total eggs,significant decrease
same,LOECREPRO (reduction in fecundity or fertility),[5]; concentrations without overt toxicity,100 µg/L
same,LOECTOX,[5]; lowest observed effect concentration on mortality,ND (>100) μg/L
same,GSI Female,[5]; [7],10.7 ± 0.8%
same,GSI Male,[5]; [7],0.64 ± 0.11%
same,HSI Female,[5]; [7],4.5 ± 0.70%
same,HSI Male,[5]; [7],2.7 ± 0.16%
same,Length Female,[5]; [7],32.4 ± 0.7 mm
same,Length Male,[5]; [7],31.9 ± 0.7 mm
same,Weight Female,[5]; [7],427 ± 25 mg
same,Weight Male,[5]; [7],366 ± 25 mg
same,GSI Female,[5]; [8],11.3 ± 0.8%
same,GSI Male,[5]; [8],0.55 ± 0.11%
same,HSI Male,[5]; [8],2.7 ± 0.28%
same,Length Female,[5]; [8],33.1 ± 0.9 mm
same,Length Male,[5]; [8],32.2 ± 0.2 mm
same,Weight Female,[5]; [8],455 ± 46 mg
same,Weight Male,[5]; [8],393 ± 20 mg
same,GSI Female,[5]; [9],9.7 ± 0.3%
same,GSI Male,[5]; [9],0.60 ± 0.20%
same,HSI Female,[5]; [9],4.4 ± 1.04%
same,HSI Male,[5]; [9],2.9 ± 0.45%
same,Length Female,[5]; [9],31.4 ± 0.8 mm
same,Length Male,[5]; [9],31.9 ± 0.7 mm
same,Weight Female,[5]; [9],423 ± 30 mg
same,Weight Male,[5]; [9],389 ± 28 mg

# Reference: publication PMC9297976 (Journal of Applied Toxicology, 2021)
